From US8802597B2, “Herbicidal pyrimidines” (E I du Pont de Nemours and Company, priority 2003, dated 2014)
Like-named read-outs stand apart in the source and are kept apart here.

Legend:
Format in all cases: in vivo
[1] = test system: Surinam grass (Brachiaria decumbens); test: Test B pre/postemergence; details: Urochloa decumbens; for pest or weed control at 125 g/ha: 125 g ai/ha; for pest or weed control at 500 g/ha: 500 g ai/ha
Outline: (§1)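 Pre: compound (non-phytotoxic solvent + surfactant) applied to freshly planted seeds. Post: same formulation sprayed on 2–18 cm plants, 1- to 4-leaf. Readout: visual control rating 0–100 vs controls, 13–15 d, greenhouse.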

[2] = test system: barnyardgrass (Echinochloa crus-galli); test: Test B pre/postemergence; details: Echinochloa crus-galli; for pest or weed control at 125 g/ha: 125 g ai/ha; for pest or weed control at 500 g/ha: 500 g ai/ha
Outline: as §1

[3] = test system: cocklebur (Xanthium strumarium); test: Test B pre/postemergence; details: Xanthium strumarium; for pest or weed control at 125 g/ha: 125 g ai/ha; for pest or weed control at 500 g/ha: 500 g ai/ha
Outline: as §1

corn (Zea mays) = test: Test B pre/postemergence; details: Zea mays
Outline: as §1

[4] = test system: crabgrass (Digitaria sanguinalis); test: Test B pre/postemergence; details: Digitaria sanguinalis; for pest or weed control at 125 g/ha: 125 g ai/ha; for pest or weed control at 500 g/ha: 500 g ai/ha
Outline: as §1

[5] = test system: giant foxtail (Setaria faberii); test: Test B pre/postemergence; details: Setaria faberi; for pest or weed control at 125 g/ha: 125 g ai/ha; for pest or weed control at 500 g/ha: 500 g ai/ha
Outline: as §1

[6] = test system: lambsquarters (Chenopodium album); test: Test B pre/postemergence; details: Chenopodium album; for pest or weed control at 125 g/ha: 125 g ai/ha; for pest or weed control at 500 g/ha: 500 g ai/ha
Outline: as §1

[7] = test system: morningglory (Ipomoea coccinea); test: Test B pre/postemergence; details: Ipomoea; for pest or weed control at 125 g/ha: 125 g ai/ha; for pest or weed control at 500 g/ha: 500 g ai/ha
Outline: as §1

[8] = test system: pigweed (Amaranthus retroflexus); test: Test B pre/postemergence; details: Amaranthus retroflexus; for pest or weed control at 125 g/ha: 125 g ai/ha; for pest or weed control at 500 g/ha: 500 g ai/ha
Outline: as §1

[9] = test system: velvetleaf (Abutilon theophrasti); test: Test B pre/postemergence; details: Abutilon theophrasti; for pest or weed control at 125 g/ha: 125 g ai/ha; for pest or weed control at 500 g/ha: 500 g ai/ha
Outline: as §1

[10] = test system: wheat (Triticum aestivum); test: Test B pre/postemergence; details: Triticum aestivum; for plant injury at 125 g/ha: 125 g ai/ha; for plant injury at 500 g/ha: 500 g ai/ha
Outline: as §1

[11] = test system: blackgrass (Alopecurus myosuroides); test: Test B postemergence; details: Alopecurus myosuroides, post-emergence
Outline: as §1

wild oat (Avena fatua) = test: Test B postemergence; details: Avena fatua, post-emergence
Outline: as §1

[12] = test system: barnyardgrass (Echinochloa crus-galli); test: Test B flooded paddy test; details: Echinochloa crus-galli, Flood, 1000 g ai/ha; scale 0 (no effect) to 100 (complete control); read-out: Plant response rating, Barnyardgrass
Outline: (§2)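 Plants were grown to the 2-leaf stage before treatment, then kept in a greenhouse for 13 to 15 days. Injury was rated visually against untreated controls on a 0 to 100 scale, where 0 is no effect and 100 is complete control.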

[13] = test system: duck salad (Heteranthera limosa); test: Test B flooded paddy test; details: Heteranthera limosa, Flood, 1000 g ai/ha; scale 0 to 100; read-out: Plant response rating, Ducksalad
Outline: as §2

rice (Oryza sativa) = test: Test B flooded paddy test; details: Oryza sativa, Flood, 1000 g ai/ha; scale 0 to 100; read-out: Plant response rating, Rice
Outline: as §2

[14] = test system: umbrella sedge (Cyperus difformis); test: Test B flooded paddy test; details: Cyperus difformis, Flood, 1000 g ai/ha; scale 0 to 100; read-out: Plant response rating, Sedge, Umbrella
Outline: as §2

[15] = pre-emergence, Preemergence, scale 0 to 100 (0 no effect, 100 complete control), read-out: Plant response rating, Wheat

CCOC(=O)c1nc(C2CC2)nc(NN)c1Br [Compound 42]
pest or weed control at 125 g/ha ([1]; post-emergence, Postemergence, scale 0 to 100 (0 no effect, 100 complete control), read-out: Surinam Grass plant response rating): 0%
pest or weed control at 500 g/ha ([1]; post-emergence, Postemergence, scale 0 to 100, read-out: Plant response rating, Surinam Grass): 10%
pest or weed control at 125 g/ha ([1]; pre-emergence, Preemergence, scale 0 to 100 (0 no effect, 100 complete control), read-out: Plant response rating, Surinam Grass): 0%
pest or weed control at 500 g/ha ([1]; pre-emergence, Preemergence, scale 0 to 100 (0 no effect, 100 complete control), read-out: Surinam Grass plant response rating): 20%
pest or weed control at 125 g/ha ([2]; post-emergence, Postemergence, scale 0 to 100 (0 no effect, 100 complete control), read-out: Barnyardgrass plant response rating): 10%
pest or weed control at 500 g/ha ([2]; post-emergence, Postemergence, scale 0 to 100, read-out: Plant response rating, Barnyardgrass): 30%
pest or weed control at 125 g/ha ([2]; pre-emergence, Preemergence, scale 0 to 100 (0 no effect, 100 complete control), read-out: Plant response rating, Barnyardgrass): 0%
pest or weed control at 500 g/ha ([2]; pre-emergence, Preemergence, scale 0 to 100 (0 no effect, 100 complete control), read-out: Barnyardgrass plant response rating): 0%
pest or weed control at 125 g/ha ([3]; post-emergence, Postemergence, scale 0 to 100 (0 no effect, 100 complete control), read-out: Cocklebur plant response rating): 80%
pest or weed control at 500 g/ha ([3]; post-emergence, Postemergence, scale 0 to 100, read-out: Plant response rating, Cocklebur): 90%
pest or weed control at 125 g/ha ([3]; pre-emergence, Preemergence, scale 0 to 100 (0 no effect, 100 complete control), read-out: Plant response rating, Cocklebur): 40%
pest or weed control at 500 g/ha ([3]; pre-emergence, Preemergence, scale 0 to 100 (0 no effect, 100 complete control), read-out: Cocklebur plant response rating): 70%
plant injury at 125 g/ha (corn (Zea mays); post-emergence, Postemergence, 125 g ai/ha, scale 0 to 100 (0 no effect, 100 complete control), read-out: Corn plant response rating): 0%
Corn plant response rating (crop injury, 0 = no effect, 100 = complete kill) at 500 g/ha (corn (Zea mays); post-emergence, Postemergence, 500 g ai/ha, scale 0 to 100): 0%
Corn plant response rating (crop injury, 0 = no effect, 100 = complete kill) at 125 g/ha (corn (Zea mays); pre-emergence, Preemergence, 125 g ai/ha, scale 0 to 100 (0 no effect, 100 complete control)): 0%
plant injury at 500 g/ha (corn (Zea mays); pre-emergence, Preemergence, 500 g ai/ha, scale 0 to 100 (0 no effect, 100 complete control), read-out: Corn plant response rating): 0%
pest or weed control at 125 g/ha ([4]; post-emergence, Postemergence, scale 0 to 100 (0 no effect, 100 complete control), read-out: Crabgrass plant response rating): 0%
pest or weed control at 500 g/ha ([4]; post-emergence, Postemergence, scale 0 to 100, read-out: Plant response rating, Crabgrass): 30%
pest or weed control at 125 g/ha ([4]; pre-emergence, Preemergence, scale 0 to 100 (0 no effect, 100 complete control), read-out: Plant response rating, Crabgrass): 0%
pest or weed control at 500 g/ha ([4]; pre-emergence, Preemergence, scale 0 to 100 (0 no effect, 100 complete control), read-out: Crabgrass plant response rating): 20%
pest or weed control at 125 g/ha ([5]; post-emergence, Postemergence, scale 0 to 100 (0 no effect, 100 complete control), read-out: Foxtail, Giant plant response rating): 0%
pest or weed control at 500 g/ha ([5]; post-emergence, Postemergence, scale 0 to 100, read-out: Plant response rating, Foxtail, Giant): 0%
pest or weed control at 125 g/ha ([5]; pre-emergence, Preemergence, scale 0 to 100 (0 no effect, 100 complete control), read-out: Plant response rating, Foxtail, Giant): 0%
pest or weed control at 500 g/ha ([5]; pre-emergence, Preemergence, scale 0 to 100 (0 no effect, 100 complete control), read-out: Foxtail, Giant plant response rating): 0%
pest or weed control at 125 g/ha ([6]; post-emergence, Postemergence, scale 0 to 100 (0 no effect, 100 complete control), read-out: Lambsquarters plant response rating): 80%
pest or weed control at 500 g/ha ([6]; post-emergence, Postemergence, scale 0 to 100, read-out: Plant response rating, Lambsquarters): 90%
pest or weed control at 125 g/ha ([6]; pre-emergence, Preemergence, scale 0 to 100 (0 no effect, 100 complete control), read-out: Plant response rating, Lambsquarters): 40%
pest or weed control at 500 g/ha ([6]; pre-emergence, Preemergence, scale 0 to 100 (0 no effect, 100 complete control), read-out: Lambsquarters plant response rating): 90%
pest or weed control at 125 g/ha ([7]; post-emergence, Postemergence, scale 0 to 100 (0 no effect, 100 complete control), read-out: Morningglory plant response rating): 80%
pest or weed control at 500 g/ha ([7]; post-emergence, Postemergence, scale 0 to 100, read-out: Plant response rating, Morningglory): 90%
pest or weed control at 125 g/ha ([7]; pre-emergence, Preemergence, scale 0 to 100 (0 no effect, 100 complete control), read-out: Plant response rating, Morningglory): 20%
pest or weed control at 500 g/ha ([7]; pre-emergence, Preemergence, scale 0 to 100 (0 no effect, 100 complete control), read-out: Morningglory plant response rating): 80%
pest or weed control at 125 g/ha ([8]; post-emergence, Postemergence, scale 0 to 100 (0 no effect, 100 complete control), read-out: Pigweed plant response rating): 80%
pest or weed control at 500 g/ha ([8]; post-emergence, Postemergence, scale 0 to 100, read-out: Plant response rating, Pigweed): 90%
pest or weed control at 125 g/ha ([8]; pre-emergence, Preemergence, scale 0 to 100 (0 no effect, 100 complete control), read-out: Plant response rating, Pigweed): 50%
pest or weed control at 500 g/ha ([8]; pre-emergence, Preemergence, scale 0 to 100 (0 no effect, 100 complete control), read-out: Pigweed plant response rating): 90%
pest or weed control at 125 g/ha ([9]; post-emergence, Postemergence, scale 0 to 100 (0 no effect, 100 complete control), read-out: Velvetleaf plant response rating): 50%
pest or weed control at 500 g/ha ([9]; post-emergence, Postemergence, scale 0 to 100, read-out: Plant response rating, Velvetleaf): 80%
pest or weed control at 125 g/ha ([9]; pre-emergence, Preemergence, scale 0 to 100 (0 no effect, 100 complete control), read-out: Plant response rating, Velvetleaf): 10%
pest or weed control at 500 g/ha ([9]; pre-emergence, Preemergence, scale 0 to 100 (0 no effect, 100 complete control), read-out: Velvetleaf plant response rating): 70%
plant injury at 125 g/ha ([10]; post-emergence, Postemergence, scale 0 to 100 (0 no effect, 100 complete control), read-out: Wheat plant response rating): 50%
plant injury at 500 g/ha ([10]; post-emergence, Postemergence, scale 0 to 100, read-out: Plant response rating, Wheat): 50%
plant injury at 125 g/ha [10, 15]: 10%
plant injury at 500 g/ha [10, 15]: 10%
pest or weed control at 125 g/ha ([11]; 125 g ai/ha, scale 0 to 100 (0 no effect, 100 complete control), read-out: Blackgrass plant response rating): 30%
pest or weed control at 500 g/ha ([11]; 500 g ai/ha, scale 0 to 100, read-out: Plant response rating, Blackgrass): 60%
pest or weed control at 125 g/ha (wild oat (Avena fatua); 125 g ai/ha, scale 0 to 100 (0 no effect, 100 complete control), read-out: Oat, Wild plant response rating): 0%
pest or weed control at 500 g/ha (wild oat (Avena fatua); 500 g ai/ha, scale 0 to 100, read-out: Plant response rating, Oat, Wild): 0%
pest or weed control at 1000 g/ha [12]: 0%
pest or weed control at 1000 g/ha [13]: 0%
plant injury at 1000 g/ha (rice (Oryza sativa)): 0%
pest or weed control at 1000 g/ha [14]: 0%
